# Test results reported in ChEMBL document CHEMBL4825709 (J Med Chem, 2021).
# Assay: physchem
# Details: buffer, pH 7.4, logD
row,SMILES,logD
1,CNC(=O)CN(CC(c1ccccc1)C1CCOCC1)C(=O)c1cc(C)c(=O)n(C)c1 (centres undefined),2.1
2,CNC(=O)C(C)N(CC(c1ccccc1)c1ccccc1)C(=O)c1cc(C)c(=O)n(C)c1 (centres undefined),3.7
3,CNC(=O)C(C1COC1)N(CC(c1ccccc1)c1ccccc1)C(=O)c1cc(C)c(=O)n(C)c1 (centres undefined),3.6
4,CCNC(=O)C(C)N(CC(c1ccccc1)c1ccccc1)C(=O)C1CCC(=O)N(C)C1 (centres undefined),3.9
5,CNC(=O)C(C1CCC1)N(CC(c1ccccc1)c1ccccc1)C(=O)c1cc(C)c(=O)n(C)c1 (centres undefined),4.9
6,CNC(=O)C(C)N(CC(c1ccccc1)c1ccccc1)C(=O)c1cn(C)c(=O)c(C)n1 (centres undefined),4.1
7,CCNC(=O)C(C)N(CC(c1ccccc1)c1ccccc1)C(=O)c1c[nH]c(=O)c(C)c1 (centres undefined),3.6
8,CCC(CN(CC(=O)NC)C(=O)c1cc(C)c(=O)n(C)c1)c1ccccc1 (centres undefined),2.8
9,CNC(=O)CN(CC(c1ccccc1)c1ccccc1)C(=O)c1cc(C)c(OC)c(C)c1,5.7
10,CNC(=O)CN(CC(C)c1ccccc1)C(=O)c1cc(C)c(=O)n(C)c1 (centres undefined),2.2
11,CNC(=O)C1(N(CC(c2ccccc2)c2ccccc2)C(=O)c2cc(C)c(=O)n(C)c2)CCC1,4.9
12,CCNC(=O)C(C)N(CC(c1ccccc1)c1ccccc1)C(=O)c1ccc(=O)n(C)c1 (centres undefined),3.7
13,CNC(=O)C(C1CCOC1)N(CC(c1ccccc1)c1ccccc1)C(=O)c1cc(C)c(=O)n(C)c1 (racemic),4
14,CNC(=O)C(C)N(CC(c1ccccc1)c1ccccn1)C(=O)c1cc(C)c(=O)n(C)c1 (stereo in doubt; 50),2.3
15,CNC(=O)[C@@H](C1CCOCC1)N(CC(c1ccccc1)c1ccccn1)C(=O)c1cc(C)c(=O)n(C)c1 (stereo in doubt; 61),2.8
16,CNC(=O)[C@H](C1CCOCC1)N(CC(c1ccccc1)c1ccccn1)C(=O)c1cc(C)c(=O)n(C)c1 (stereo in doubt; 62),2.8

# Assay: not given
# Details: buffer, pH 7.4
row,SMILES,logD
1,CNC(=O)C(C)N(CC(c1ccccc1)c1ccccn1)C(=O)c1cc(C)c(=O)n(C)c1 (stereo in doubt; 51),2.1
2,CNC(=O)C(C)N(CC(c1ccccc1)c1ccccn1)C(=O)c1cc(C)c(=O)n(C)c1 (stereo in doubt; 56),2.7
3,CNC(=O)C(C)N(CC(c1ccccc1)c1ccccn1)C(=O)c1cc(C)c(=O)n(C)c1 (stereo in doubt; 57),2.6
4,CNC(=O)[C@@H](C1CCOCC1)N(CC(c1ccccc1)c1ccccn1)C(=O)c1cc(C)c(=O)n(C)c1 (stereo in doubt; 63),2.9

# Assay: physchem
# Details: not given
row,SMILES,solubility [µg/mL]
1,CNC(=O)[C@H](C)N(CC(c1ccccc1)c1ccccc1)C(=O)c1cc(C)c(=O)n(C)c1,> 163
2,CNC(=O)[C@@H](C)N(CC(c1ccccc1)c1ccccc1)C(=O)c1cc(C)c(=O)n(C)c1,> 211
3,CNC(=O)C(C)N(CC(c1ccccc1)c1ccccc1)C(=O)c1cc(C)c(=O)n(C)c1 (centres undefined),213
4,CNC(=O)C(C1COC1)N(CC(c1ccccc1)c1ccccc1)C(=O)c1cc(C)c(=O)n(C)c1 (centres undefined),> 142
5,CNC(=O)C(C1CCC1)N(CC(c1ccccc1)c1ccccc1)C(=O)c1cc(C)c(=O)n(C)c1 (centres undefined),161
6,CCNC(=O)C(C)N(CC(c1ccccc1)c1ccccc1)C(=O)c1c[nH]c(=O)c(C)c1 (centres undefined),> 170
7,CNC(=O)CN(CC(c1ccccc1)c1ccccc1)C(=O)c1cc(C)c(OC)c(C)c1,114
8,CNC(=O)C1(N(CC(c2ccccc2)c2ccccc2)C(=O)c2cc(C)c(=O)n(C)c2)CCC1,> 150
9,CCNC(=O)C(C)N(CC(c1ccccc1)c1ccccc1)C(=O)c1ccc(=O)n(C)c1 (centres undefined),> 169

# Assay: Solubility of compound in pH 7.4 by charged aerosol detection method
# Type: physicochemical
# Details: buffer
row,SMILES,solubility [µg/mL]
1,CNC(=O)C(C1CCOC1)N(CC(c1ccccc1)c1ccccc1)C(=O)c1cc(C)c(=O)n(C)c1 (stereo in doubt; 22),> 185
2,CNC(=O)C(C1CCOC1)N(CC(c1ccccc1)c1ccccc1)C(=O)c1cc(C)c(=O)n(C)c1 (stereo in doubt; 23),> 181
3,CNC(=O)C(C1CCOC1)N(CC(c1ccccc1)c1ccccc1)C(=O)c1cc(C)c(=O)n(C)c1 (stereo in doubt; 24),> 153

# Same assay, conditions: buffer, read-out: solubility
row,SMILES,solubility [µg/mL]
1,CNC(=O)C(C)N(CC(c1ccccc1)c1ccccc1)C(=O)c1cn(C)c(=O)c(C)n1 (centres undefined),> 102
2,CNC(=O)C(C1CCOC1)N(CC(c1ccccc1)c1ccccc1)C(=O)c1cc(C)c(=O)n(C)c1 (racemic),> 138
